Experimental data from ChEMBL document CHEMBL1126485, “Synthesis of nucleoside analogues with a 1,5-anhydrohexitol moiety” (1993).

Experiments:
[1] = Concentration required for inhibition of proliferation of herpes simplex virus type I at 0.07 ug/mL.; format: functional; settings: Human alphaherpesvirus 1
Human alphaherpesvirus 2 = test: Concentration required for inhibition of proliferation of herpes simplex virus type II at 0.07 ug/mL.; format: functional

Compound `O=c1[nH]c(=O)n(C2COC(CO)C(O)C2)cc1I` (configuration not stated) has an inhibition at 0.07 µg/mL [1] of 50% and an inhibition at 0.07 µg/mL (Human alphaherpesvirus 2) of 50%.
